The source made the active and inactive calls. The calls are words filed in the database; no cut-off is given here.
Experiments:
[1] = tested on: Matrix protein 2 (Influenza A virus), P06821 [V27A]; assay: Inhibition of influenza A virus wild type M2 proton channel V27A mutant expressed in Xenopus oocytes at 100 uM by two-electrode voltage clamp analysis; assay type: cell-based
[2] = tested on: Matrix protein 2 (Influenza A virus), P06821 [withheld]; assay: Inhibition of influenza A virus wild type M2 proton channel S31N mutant expressed in Xenopus oocytes at 100 uM by two-electrode voltage clamp analysis; assay type: cell-based

SMILES	inhibition [1]	inhibition [2]
C1=CC[C@]23CCCC[C@@]2(C1)CNC3	inactive	inactive
C=C1CC23CC=CCC2(CNC3)C1 (centres undefined)	inactive	inactive
CC1CC23CNCC2(C1)CC(C)C3 (centres undefined)	inactive	inactive
CC1CC23CC(C)CC2(C1)CN(C(=N)N)C3 (centres undefined)	inactive	inactive
C=C1CC23CCCC2(CNC3)C1 (centres undefined)	inactive	inactive
C1CC23CCCC2(C1)CNC3 (centres undefined)	inactive	inactive
C=C1CC23CNCC2(C1)CC(=C)C3 (centres undefined)	inactive	inactive
